Laboratory results as given in patent EP4656642A1, “ESTROGEN RECEPTOR PROTEOLYSIS TARGETING CHIMERA COMPOUND AND USE THEREOF” (GAN & LEE PHARM CO., LTD, priority 2023, dated 2024).

Columns and labels:
Format in all cases: cell-based
[1] = target: T1, ERα (Homo sapiens, UniProt P03372); assay: Degradation of ERα in MCF-7 cells (immunoblotting, 4 h)
T1 sequence (P03372 1-595): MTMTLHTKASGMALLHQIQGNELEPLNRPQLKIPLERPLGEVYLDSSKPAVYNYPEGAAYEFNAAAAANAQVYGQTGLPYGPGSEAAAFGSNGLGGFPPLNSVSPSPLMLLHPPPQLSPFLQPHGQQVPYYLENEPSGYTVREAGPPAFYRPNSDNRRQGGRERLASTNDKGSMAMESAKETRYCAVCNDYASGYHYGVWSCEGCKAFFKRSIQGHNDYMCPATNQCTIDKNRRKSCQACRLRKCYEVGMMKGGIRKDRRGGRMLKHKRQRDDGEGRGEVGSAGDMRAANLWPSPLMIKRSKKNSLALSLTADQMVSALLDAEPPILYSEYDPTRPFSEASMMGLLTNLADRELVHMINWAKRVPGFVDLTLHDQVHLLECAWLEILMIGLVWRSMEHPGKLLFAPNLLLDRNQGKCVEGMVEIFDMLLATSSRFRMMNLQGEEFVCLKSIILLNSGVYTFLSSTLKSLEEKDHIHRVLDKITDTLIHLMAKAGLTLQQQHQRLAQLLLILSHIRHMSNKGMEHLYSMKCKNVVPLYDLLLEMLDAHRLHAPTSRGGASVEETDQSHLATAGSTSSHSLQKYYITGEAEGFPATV
Procedure, shortened: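 MCF-7 cells treated 4 h at 37°C with compounds at 0.15-1000nM final. ERα in lysates measured by immunoblot, with band grayscale normalized to an internal reference protein. Degradation rate calculated against DMSO-treated control.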

[2] = target: T1, ERα; assay: Degradation of ERα in T-47D cells (immunoblotting, 4 h); set-up: host or cells: T-47D
Procedure, shortened: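 T-47D cells were treated with compound (final 0.15-1000 nM, DMSO) for 4 h at 37°C, 5% CO2. Cells were lysed in RIPA buffer with protease inhibitor, and ERα protein in the cleared lysate was measured by immunoblotting.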

[3] = test system: MCF-7 cells; assay: Inhibition of cell proliferation of MCF-7 cells (CCK-8, 9 days)
Procedure, shortened: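 MCF-7 cells seeded at 800 cells/well in DMEM with 10% FBS, exposed to a range of compound concentrations for 9 days at 37°C, 5% CO2. Viability read by CCK-8; IC50 derived for proliferation inhibition.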

[4] = test system: T-47D cells; assay: Inhibition of cell proliferation in T-47D cells (CCK-8, 6 days); settings: 6 days of treatment
Text: Test Example 2: Inhibitory effect of the PROTAC compounds provided in the present disclosure on cell proliferation in T-47D cells (source ATCC)
The complete medium required for T-47D cells was 1640 ( ATCC, Product number: A10491-01) basal medium containing 10% fetal bovine serum. T-47D cells were inoculated in 96-well plates at a density of 3,000 cells/well, and different concentrations of the PROTAC compounds 1-55 provided in the examples of the present disclosure and a positive control sample ARV-471 (source: Innochem) were prepared to treat cells, and the cells were treated at 37°C in a cell culture incubator with 5% CO2 for 6 days. Cell viability was detected using a CCK-8 kit (Beyotime, Product number: C0040) according to the manufacturer's instructions. […] Table 2 IC50 values for inhibition of the proliferation of T-47D cells by the PROTAC compounds provided by the present disclosure and the positive control sample

[5] = treated for 9 days, CCK-8 kit (Table 6)
[6] = 9 days of treatment, CCK-8, Table 5

Structure (SMILES)	Degradation rate (%) of ERα in MCF-7 cells ([1]; 1nM compound) [%]	Degradation rate (%) of ERα in MCF-7 cells ([1]; 10nM compound) [%]	Degradation rate (%) of ERα in T-47D cells ([2]; 1nM compound) [%]	Degradation rate (%) of ERα in T-47D cells ([2]; 10nM compound) [%]	IC50 [3, 5] [nM]	IC50 ([4]; Table 3) [nM]	IC50 [3, 6] [nM]	IC50 ([4]; Table 2) [nM]
O=C1CCC(N2Cc3cc4c(cc3C2=O)CCC2(CN(C(=O)CN3CCC5(CC3)CCN(c3ccc([C@@H]6c7ccc(O)cc7CC[C@@H]6c6ccccc6)cc3)CC5)C2)O4)C(=O)N1 (stereo partly drawn) [A69]	21	35	19	67	90.8	3.53		
CCNC(=O)[C@@H]1CC(N2CCC3(CC2)COc2c3ccc3c2CN(C2CCC(=O)NC2=O)C3=O)CCN1C1CC2(CCN(c3ccc([C@@H]4c5ccc(O)cc5CC[C@@H]4c4ccccc4)cc3)CC2)C1 (stereo partly drawn) [H40]	69	84	56	86	57.9	1.42		
O=C1CCC(N2Cc3c(ccc4c3OCC43CCN(C(=O)[C@H]4CC[C@@H](N(CC5CC5)C5CCN(c6ccc([C@@H]7c8ccc(O)cc8CC[C@@H]7c7ccccc7)cc6)CC5)CC4)CC3)C2=O)C(=O)N1 (stereo partly drawn) [B48]	63	74	61	80	33.5	4.35		
O=C1CCC(N2Cc3c(ccc4c3OCC43CCN(CC(=O)N4CC5(CCN(c6ccc([C@@H]7c8ccc(O)cc8CC[C@@H]7c7ccccc7)cc6)CC5)C4)CC3)C2=O)C(=O)N1 (stereo partly drawn) [K5]	30	58	73	85	132	1.61		
O=C1CCC(N2Cc3cc4c(cc3C2=O)CCC2(CN(C3CCN(C5CCN(c6ccc([C@@H]7c8ccc(O)cc8CC[C@@H]7c7ccccc7)cc6)CC5)CC3)C2)O4)C(=O)N1 (stereo partly drawn) [A53]	10	45	37	66	< 0.256	3.87		
O=C1CCC(N2Cc3c(ccc4c3OCC43CCN(C(=O)c4ccc(CN5CCN(c6ccc([C@@H]7c8ccc(O)cc8CC[C@@H]7c7ccccc7)cc6)CC5)nc4)CC3)C2=O)C(=O)N1 (stereo partly drawn) [B47]	28	33	59	65	27100	1.29		
O=C1CCC(N2Cc3ccc4c(c3C2=O)OCC42CCN(C3CCC4(CC3)CN(c3ccc([C@@H]5c6ccc(O)cc6CC[C@@H]5c5ccccc5)cc3)C4)CC2)C(=O)N1 (stereo partly drawn) [L25]	-20	6	-1	17	757	7.97		
CN(C(=O)CN1CCC2(CC1)COc1c2ccc2c1CN(C1CCC(=O)NC1=O)C2=O)C1CCC2(CC1)CCN(c1ccc([C@@H]3c4ccc(O)cc4CC[C@@H]3c3ccccc3)cc1)CC2 (stereo partly drawn) [H50]	32	71	11	63	9560	3.59		
O=C1CCC(N2Cc3cc4c(cc3C2=O)OC2(CC4)CN(CC3CCN(c4ccc([C@@H]5c6ccc(O)cc6CC[C@@H]5c5ccccc5)cc4)CC3)C2)C(=O)N1 (stereo partly drawn) [H3]	-20	-37	-43	-56	2410	200		
O=C1CCC(N2Cc3c(ccc4c3OCC43CCN(C4CCN(C5CCN(c6ccc([C@@H]7c8ccc(O)cc8CC[C@@H]7c7ccccc7)cc6)CC5)CC4F)CC3)C2=O)C(=O)N1 (stereo partly drawn) [H34]	42	65	30	77	10.9	1.33		
O=C1CCC(N2Cc3cc4c(cc3C2=O)OC2(CC4)CCN(C3CCC4(CC3)CN(c3ccc(C5c6ccc(O)cc6CCC5c5ccccc5)cc3)C4)CC2)C(=O)N1 (stereo not drawn) [A23]		14		53			10	9
CCNC(=O)[C@H]1CC(N2CCC3(CC2)COc2c3ccc3c2CN(C2CCC(=O)NC2=O)C3=O)CCN1C1CC2(CCN(c3ccc([C@@H]4c5ccc(O)cc5CC[C@@H]4c4ccccc4)cc3)CC2)C1 (stereo partly drawn) [K26]	67	88	56	87	48.2	1.12		
C[C@@H]1Cc2c(ccc3[nH]ncc23)[C@@H](c2c(F)cc(N3CCC(C(=O)N4CCC(N5CCC6(CC5)COc5c6ccc6c5CN(C5CCC(=O)NC5=O)C6=O)CC4)CC3)cc2F)N1CC(F)F (stereo partly drawn) [B38]	63	57	57	63	90.5	1.23		
O=C1CCC(N2Cc3c(ccc4c3OCC43CCN(CC4CCN(C(=O)C5CCN(c6ccc([C@@H]7c8ccc(O)cc8CC[C@@H]7c7ccccc7)cc6)CC5)CC4)CC3)C2=O)C(=O)N1 (stereo partly drawn) [A100]	65	73	77	84	2.27	0.84		
O=C1CCC(N2Cc3cc4c(cc3C2=O)CCC2(CN(CC3CC5(CCN(c6ccc([C@@H]7c8ccc(O)cc8CC[C@@H]7c7ccccc7)cc6)CC5)C3)C2)O4)C(=O)N1 (stereo partly drawn) [B12]	-8	-11	-17	-4	950	33		
O=C1CCC(N2Cc3cc4c(cc3C2=O)CCC2(CN(C3CCC5(CC3)CN(c3ccc([C@@H]6c7ccc(O)cc7CC[C@@H]6c6ccccc6)cc3)C5)C2)O4)C(=O)N1 (stereo partly drawn) [B10]	3	23	5	46	37	3	40	6.6
